Converted amounts (≈) assume the structure as drawn. Where only a bound is given, the exact number is not on record here.

The test system of assay [1] is Serratia marcescens 1421-4. As to the kind of experiment: MIC and FIC, Nutrient agar (Tests 2, 3). It counts as cell-based. The note with it: Serratia marcescens, 14214, 20 h.
The subject of assay [2] is Pseudomonas aeruginosa 1101-76. As to the kind of experiment: MIC and FIC, Nutrient agar (Test 3). It counts as cell-based. The note with it: Pseudomonas aeruginosa, 110176, 20 h.
The subject of the next assay is Staphylococcus aureus 1. The assay can be described thus: MIC and FIC, Nutrient agar (Test 7). The assay is classed as cell-based. To be noted: S. aureus 1, 18 h.
For a further assay, the system named is Proteus mirabilis 5. As to the kind of experiment: MIC and FIC, Nutrient agar (Test 7). It counts as cell-based. The note with it: P. mirabilis 5, 18 h.
In a further assay the test system is Staphylococcus aureus 3. The assay can be described thus: MIC and FIC, Nutrient agar (Tests 6, 7). To be noted: Staphylococcus aureus; S. aureus 3; 18 h; read-out: MIC. It counts as cell-based.
In assay [3] the test system is Alcaligenes faecalis 1311-1. As to the kind of experiment: MIC and FIC, Nutrient agar (Test 2). It counts as cell-based. To be noted: 13111, A. faecalis 1311-1, 20 h.
Description: (§1) After the incubation was carried out at 37° C. for 20 hours, MIC values were determined.
(§2) FIC values and FIC Index were calculated in substantially the same manner as described in Test 1.
Assay [4] deals with Escherichia coli 1341-18R^+. As to the kind of experiment: MIC and FIC, Nutrient agar (Test 3). The assay is classed as cell-based. The note with it: 20 h.
Assay [5] relates to Enterobacter aerogenes 25. The assay can be described thus: microbe, parasite or virus in culture. To be noted: Klebsiella aerogenes, 25, 18 h.
In assay [6] the test system is Pseudomonas aeruginosa No.11. As to the kind of experiment: MIC and FIC, Nutrient agar, multiple inoculator (Test 5). The assay is classed as cell-based. The note with it: Pseudomonas aeruginosa; P. aeruginosa No.11; 10^8 cells/ml, 20 h; read-out: MIC.
Description: as §1, §2
The test system of assay [7] is Pseudomonas aeruginosa 77. The assay can be described thus: MIC and FIC, Nutrient agar (Test 7). The note with it: P. aeruginosa 77, 18 h. It counts as cell-based.
Description: as §2
The next assay concerns Staphylococcus aureus 2. As to the kind of experiment: MIC and FIC, Nutrient agar (Test 7). It counts as cell-based. The note with it: S. aureus 2, 18 h.
Assay [8] deals with Proteus mirabilis 1432-75. As to the kind of experiment: MIC and FIC, Nutrient agar (Tests 2, 3). The assay is classed as cell-based. To be noted: Proteus mirabilis, 143275, 20 h.
For assay [9], the system named is Pseudomonas aeruginosa No.18. The assay can be described thus: MIC and FIC, Nutrient agar, multiple inoculator (Test 5). It counts as cell-based. The note with it: Pseudomonas aeruginosa; P. aeruginosa No.18; 10^8 cells/ml, 20 h; read-out: MIC.
Description: as §1, §2

Description for Proteus mirabilis 5: as §2
Description for Staphylococcus aureus 1: as §2
Description for Staphylococcus aureus 2: as §2
Description for Staphylococcus aureus 3: as §2

Take `O=CN(O)CCCP(=O)(O)O` [A (Table 2)]: the MIC was 50 µg/mL in assay [1]; 1.56 µg/mL in [2]; 400 µg/mL with Staphylococcus aureus 1; 25 µg/mL in the assay with Proteus mirabilis 5; 400 µg/mL with Staphylococcus aureus 3; no less than 400 µg/mL in [3]. For the same molecule, the MIC was 6.25 µg/mL in assay [4]; 100 µg/mL (≈ 546 µM) in [5]; greater than 800 µg/mL in assay [6]; 6.25 µg/mL in assay [7]; 200 µg/mL in the assay with Staphylococcus aureus 2; 1.56 µg/mL in assay [8]. In assay [9], the MIC was greater than 800 µg/mL.

Source of the values: US4330529A, “Antibacterial composition” (Fujisawa Pharmaceutical Co., Ltd., priority 1979, dated 1982).
